Tests used:
[1] = biological target: T1, human IIA type secretory PLA2 (Homo sapiens, UniProt P14555); test: Inhibition of secretory PLA2 activity, release of 14C-oleic acid from 14C-POPC; assay type: biochemical; settings: purified human IIA type (10 ng); 1 mM POPC, 3 mM deoxycholic acid, 2 mM CaCl2, pH 8.0, 40° C., 60 min; FIG. 4
T1 sequence (P14555 21-144): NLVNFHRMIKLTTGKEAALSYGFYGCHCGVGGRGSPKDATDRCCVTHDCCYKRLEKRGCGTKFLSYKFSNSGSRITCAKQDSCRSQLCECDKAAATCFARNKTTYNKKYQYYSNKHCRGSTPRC
Protocol: (§1) Inhibitory activity against this novel type of human secretory type PLA2 was determined with Indoxam that is a 1-oxamoylindolidine derivative. It has already been reported that Indoxam inhibits the enzymatic activities of IIA type and IB type secretory type PLA2 (Yokota et al., Biochim. Biophys. Acta (1999) 1438, 213-222). The PLA2 activities were determined by the measurement of the quantity of released ^14C-oleic acid from ^14C-labeled 1-palmitoyl-2-oleoyl-phosphatidylcholine (POPC), according to the Draheim et al.'s method (J. Med. Chem., (1996) 39, 5159-5175). In the solution composed of 50 mM Tris-HCl (pH 8.0), 200 mM NaCl, 2 mM CaCl2, and 1 mg/ml bovine serum albumin, the substrates composed of 1 mM POPC (the mixture of about 100,000 cpm ^-C-POPC and unlabeled POPC) and 3 mM deoxycholic acid were incubated with each secretory PLA2 in the presence of various concentrations of Indoxam at 40° C. for 60 min. Then, the quantity of released ^-C-oleic acid was measured. Purified materials were used in the case with human IB type (2 ng), IIA type (10 ng) and X type (4 ng). […]
(§2) The quantity of released ^14C-oleic acid from ^14C-POPC by each human secretory type PLA2 in the absence of Indoxam was regarded as 100% and the quantity of released ^14C-oleic acid in the presence of each concentration of Indoxam was shown as %.

[2] = biological target: T2, human PLA2 of this invention (IID type) (Homo sapiens, UniProt Q9UNK4); test: as above; assay type: biochemical; settings: IID type from culture supernatant of CHO cells; 1 mM POPC, 3 mM deoxycholic acid, 2 mM CaCl2, pH 8.0, 40° C., 60 min; FIG. 4
T2 construct: made in house
T2 sequence (Q9UNK4 21-145): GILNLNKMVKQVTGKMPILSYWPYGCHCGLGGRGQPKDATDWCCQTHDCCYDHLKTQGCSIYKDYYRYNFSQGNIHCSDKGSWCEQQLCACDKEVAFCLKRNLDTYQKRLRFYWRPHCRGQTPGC
Protocol: as §1, §2

[3] = biological target: T3, IIA type secretory type PLA2 (Homo sapiens, UniProt P14555); settings: already reported, Yokota et al., Biochim. Biophys. Acta (1999) 1438, 213-222; cited from earlier work
T3 sequence (P14555 21-144): T1 sequence (P14555 21-144)

[4] = biological target: IB type secretory type PLA2 (Homo sapiens, UniProt P04054); settings: already reported, Yokota et al., Biochim. Biophys. Acta (1999) 1438, 213-222; cited from earlier work
IB type secretory type PLA2, sequence (P04054 23-148): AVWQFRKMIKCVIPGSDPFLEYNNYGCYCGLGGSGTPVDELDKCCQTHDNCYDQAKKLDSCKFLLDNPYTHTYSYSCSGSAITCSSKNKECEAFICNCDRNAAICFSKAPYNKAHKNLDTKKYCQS

CCc1c(C(=O)C(N)=O)c2c(OCC(=O)O)cccn2c1Cc1ccccc1-c1ccccc1 [Indoxam]
inhibition of enzymatic activity (released 14C-oleic acid as % of that without Indoxam) [1]: strongly inhibits | inhibition of enzymatic activity (released 14C-oleic acid as % of that without Indoxam) [2]: strongly inhibits | inhibition of enzymatic activity of IIA type secretory type PLA2 [3]: inhibits | inhibition of enzymatic activity of IB type secretory type PLA2 [4]: inhibits
